From patent publication US10105365B2, “Solid antiviral dosage forms” (AbbVie Inc., priority 2014, dated 2018)

Legend:
[1] = Sink Conditions dissolution testing of Formulation C5-12; type: physicochemical; conditions: N = 6
Description: The release profiles of Formulation C5-12 of Example 1 were evaluated in a Sink Conditions dissolution study. The study was conducted in 900 mL of dissolution medium using a standard USP dissolution Apparatus 2 (paddle) operating at 100 RPM at 37±0.5° C. The dissolution medium was a 0.05 M sodium phosphate buffer pH 6.8 with 15 mM cTAB as a surfactant.

[2] = Human pharmacokinetic study, Example 4 Arm II (single dose, crossover); type: in vivo; conditions: both sexes, human, oral, Example 4 Arm II, single dose, non-fasting, N = 13; for half-life / AUC(0-t) / AUC(0-inf) / Tmax: blood; for AUC(0-t): read-out: AUCt, geometric mean; for AUC(0-inf): read-out: AUC∞, geometric mean; for Tmax: read-out: Tmax; for concentration at 24 h / Cmax: in vivo; for concentration at 24 h: read-out: C24, geometric mean; for Cmax: read-out: Cmax, geometric mean
Outline: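 Healthy adult men and women (N=30 across Arms I and II) randomised to crossover regimen sequences; single oral dose with ~240 mL water ~30 min after a standardised breakfast; one regimen given an evening dose after a snack.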

[3] = Human pharmacokinetic study, Example 4 Arm III (14-day multiple dose, steady state); type: in vivo
[4] = Human pharmacokinetic study, Example 5 Arm I (single dose, replicated crossover); type: in vivo; conditions: both sexes, human, oral, single dose, non-fasting; for half-life / AUC(0-t) / AUC(0-inf) / Tmax: blood; for Cmax: in vivo
Outline: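 Single-dose, randomized, four-period, two-sequence replicated crossover in 88 healthy adults, periods separated by at least 10 days. Oral dosing in the morning with about 240 mL water, about 30 min after starting a standardized breakfast. Serial blood samples collected over 72 h after each dose.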

[5] = Human pharmacokinetic study, Example 5 Arm II (multiple dose, crossover); type: in vivo; conditions: Example 5 Arm II; for β, geometric mean / half-life / AUC / concentration at 24 h / Cmax / Tmax: multiple dose 14 days, non-fasting, N = 63; for half-life / AUC / concentration at 24 h / Cmax / Tmax: both sexes, human, blood, oral; for AUC: read-out: AUC24, geometric mean; for concentration at 24 h: read-out: C24, geometric mean; for Cmax: read-out: Cmax, geometric mean; for Tmax: read-out: Tmax, first value (geometric mean)
Outline: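 Multiple-dose two-period randomized crossover in 66 healthy adults: oral dosing for 14 days per period, ≥10-day separation, taken with ~240 mL water about 30 min after a standardized breakfast. Serial blood samples for pharmacokinetics were collected 72 hours after dosing in each period.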

[6] = Solubility (general statement); type: physicochemical
[7] = Permeability (general statement); type: in vitro ADME; conditions: free acid of Compound 4; gastrointestinal tract
[8] = 4 hours, pH 6.8 buffer, 15 mM cTAB
[9] = 6 hours, pH 6.8 buffer, 15 mM cTAB
[10] = 8 hours, pH 6.8 buffer, 15 mM cTAB
[11] = 12 hours, pH 6.8 buffer, 15 mM cTAB
[12] = 16 hours, pH 6.8 buffer, 15 mM cTAB
[13] = 24 hours, pH 6.8 buffer, 15 mM cTAB
[14] = 30 hours, pH 6.8 buffer, 15 mM cTAB
[15] = 3 Formulation C5-12 tablets, Regimen E (C5-12): three Formulation C5-12 tablets in the morning
[16] = Regimen A (reference regimen): two Triple Tablets + one Single Tablet morning, one Single Tablet evening
[17] = Formulation C5-12, Day 14 versus Day 1
[18] = human, in vivo, oral, 3 Formulation C5-12 tablets daily, three Formulation C5-12 tablets daily for 14 days, non-fasting, Day 14, N = 14
[19] = three Formulation C5-12 tablets daily for 14 days, non-fasting, Day 14, N = 14
[20] = Regimen B (reference regimen): two Triple Tablets + one Single Tablet morning, one Single Tablet evening
[21] = 3 film-coated Formulation C5-12 tablets daily, Regimen A (C5-12): three film-coated Formulation C5-12 tablets daily

% Released ([1]; 1 hour, 900 mL 0.05 M sodium phosphate buffer pH 6.8, 15 mM cTAB, USP Apparatus 2, 100 RPM, 37 °C): 1%
mg Released ([1]; 1 hour, pH 6.8 buffer, 15 mM cTAB): 2.3 mg
% Released [1, 8]: 11%
mg Released [1, 8]: 25.7 mg
% Released [1, 9]: 18%
mg Released [1, 9]: 42.0 mg
% Released [1, 10]: 25%
mg Released [1, 10]: 58.3 mg
% Released [1, 11]: 39%
mg Released [1, 11]: 91.0 mg
% Released [1, 12]: 51%
mg Released [1, 12]: 119.0 mg
% Released [1, 13]: 70%
mg Released [1, 13]: 163.3 mg
% Released [1, 14]: 81%
mg Released [1, 14]: 189.0 mg
half-life [2, 15]: 6.4 h
AUC(0-t) [2, 15]: 18.4 µg·h/mL
AUC(0-inf) [2, 15]: 18.6 µg·h/mL
Tmax [2, 15]: 9.7 h
half-life [2, 16]: 5.5 h
AUC(0-t) [2, 16]: 18.2 µg·h/mL
AUC(0-inf) [2, 16]: 18.4 µg·h/mL
Tmax [2, 16]: 3.1 h
concentration at 24 h [2, 15]: 0.29 µg/mL
Cmax [2, 15]: 1.35 µg/mL
concentration at 24 h [2, 16]: 0.361 µg/mL
Cmax [2, 16]: 1.24 µg/mL
AUC24, RATIO [3, 17]: 0.88
C24, RATIO [3, 17]: 0.63
Cmax, RATIO [3, 17]: 0.95
Tmax ([3]; human, in vivo, oral, 3 Formulation C5-12 tablets daily, three Formulation C5-12 tablets daily for 14 days, non-fasting, Day 1, N = 14): 9 h
AUC ([3]; human, in vivo, oral, 3 Formulation C5-12 tablets daily, three Formulation C5-12 tablets daily for 14 days, non-fasting, Day 1, N = 14, read-out: AUC24, geometric mean): 13.6 µg·h/mL
concentration at 24 h ([3]; human, in vivo, oral, 3 Formulation C5-12 tablets daily, three Formulation C5-12 tablets daily for 14 days, non-fasting, Day 1, N = 14, read-out: C24, geometric mean): 0.272 µg/mL
Cmax ([3]; human, in vivo, oral, 3 Formulation C5-12 tablets daily, three Formulation C5-12 tablets daily for 14 days, non-fasting, Day 1, N = 14, read-out: Cmax, geometric mean): 1.32 µg/mL
Tmax [3, 18]: 9.4 h
half-life [3, 18]: 5.9 h
AUC ([3]; human, in vivo, oral, 3 Formulation C5-12 tablets daily, three Formulation C5-12 tablets daily for 14 days, non-fasting, Day 14, N = 14, read-out: AUC24, geometric mean): 12 µg·h/mL
concentration at 24 h ([3]; human, in vivo, oral, 3 Formulation C5-12 tablets daily, three Formulation C5-12 tablets daily for 14 days, non-fasting, Day 14, N = 14, read-out: C24, geometric mean): 0.172 µg/mL
Cmax ([3]; human, in vivo, oral, 3 Formulation C5-12 tablets daily, three Formulation C5-12 tablets daily for 14 days, non-fasting, Day 14, N = 14, read-out: Cmax, geometric mean): 1.25 µg/mL
C24, arithmetic mean, % CV [3, 19]: (210,61) ng/mL
β [3, 19]: 0.117 h⁻¹
half-life ([4]; 3 film-coated Formulation C5-12 tablets, Regimen A (C5-12): three film-coated Formulation C5-12 tablets, N = 172): 6.91 h
AUC(0-t) ([4]; 3 film-coated Formulation C5-12 tablets, Regimen A (C5-12): three film-coated Formulation C5-12 tablets, N = 172, read-out: AUCt, geometric mean): 12.7 µg·h/mL
AUC(0-inf) ([4]; 3 film-coated Formulation C5-12 tablets, Regimen A (C5-12): three film-coated Formulation C5-12 tablets, N = 172, read-out: AUC∞, geometric mean): 12.9 µg·h/mL
Tmax ([4]; 3 film-coated Formulation C5-12 tablets, Regimen A (C5-12): three film-coated Formulation C5-12 tablets, N = 172, read-out: Tmax, first value (geometric mean)): 8 h
half-life ([4]; Regimen B (reference regimen): two Triple Tablets + one Single Tablet morning, one Single Tablet evening, N = 171): 5.8 h
AUC(0-t) ([4]; Regimen B (reference regimen): two Triple Tablets + one Single Tablet morning, one Single Tablet evening, N = 171, read-out: AUCt, geometric mean): 14.8 µg·h/mL
AUC(0-inf) ([4]; Regimen B (reference regimen): two Triple Tablets + one Single Tablet morning, one Single Tablet evening, N = 171, read-out: AUC∞, geometric mean): 14.9 µg·h/mL
Tmax ([4]; Regimen B (reference regimen): two Triple Tablets + one Single Tablet morning, one Single Tablet evening, N = 171, read-out: Tmax, first value (geometric mean)): 4 h
Cmax ([4]; 3 film-coated Formulation C5-12 tablets, Regimen A (C5-12): three film-coated Formulation C5-12 tablets, N = 172, read-out: Cmax, geometric mean): 1.06 µg/mL
Cmax ([4]; Regimen B (reference regimen): two Triple Tablets + one Single Tablet morning, one Single Tablet evening, N = 171, read-out: Cmax, geometric mean): 1.03 µg/mL
β, geometric mean ([5]; Regimen A (C5-12): three film-coated Formulation C5-12 tablets daily): 0.104 h⁻¹
β, geometric mean [5, 20]: 0.122 h⁻¹
Exposures (Cmax,ss and AUC24,ss) versus the reference regimen ([5]; Formulation C5-12, point estimate and 90% confidence interval for the GMR within 0.80-1.25): bioequivalent
C24,ss lower than C24,ss (Ctrough) for the reference regimen ([5]; Formulation C5-12 relative to the reference regimen): 29%
half-life [5, 21]: 6.2 h
AUC [5, 21]: 8.81 µg·h/mL
concentration at 24 h [5, 21]: 0.116 µg/mL
Cmax [5, 21]: 0.799 µg/mL
Tmax [5, 21]: 8 h
half-life [5, 20]: 5.5 h
AUC [5, 20]: 9.77 µg·h/mL
concentration at 24 h [5, 20]: 0.162 µg/mL
Cmax [5, 20]: 0.879 µg/mL
Tmax [5, 20]: 4 h
Solubility ([6]; aqueous): low solubility
Solubility in the gastrointestinal tract ([6]; free acid of Compound 4): poor solubility
Permeability [7]: good permeability
Compound: COc1c(-c2ccc3cc(NS(C)(=O)=O)ccc3c2)cc(-n2ccc(=O)[nH]c2=O)cc1C(C)(C)C [Compound 4, N-(6-(3-tert-butyl-5-(2,4-dioxo-3,4-dihydropyrimidin-1(2H)-yl)-2-methoxyphenyl)naphthalen-2-yl)methanesulfonamide]
